According to US10710978B2, “STK4 inhibitors for treatment of hematologic malignancies” (Dana-Farber Cancer Institute, Inc., priority 2015, dated 2020):
Like-named read-outs stand apart in the source and are kept apart here.

How the values were obtained:
Assay in all cases: KiNativ assay
Assay type in all cases: binding
MAP2K7 = MAP2K7 (Homo sapiens (Human), UniProt O14733); conditions: H929 live cell
Protocol: (§1) Biochemical IC50s of the compounds of the present disclosure against various kinases were measured in a KiNativ assay. Compounds were screened in duplicate at 10 μM in H929 live cell. IC50 was measured via Mass spectroscopy (MS).

p70S6Kb = p70S6Kb (Homo sapiens (Human), UniProt Q9UBS0); conditions: H929 live cell
Protocol: as §1

p70S6K = p70S6K (Homo sapiens (Human), UniProt P23443); conditions: H929 live cell
Protocol: as §1

PRPK = PRPK (Homo sapiens (Human), UniProt Q96S44); conditions: H929 live cell
Protocol: as §1

RSK1 domain2 = RSK1 domain2 (Homo sapiens (Human), UniProt Q15418); conditions: H929 live cell
Protocol: as §1

TAO1, TAO3 = conditions: H929 live cell
Protocol: as §1

MST1 = MST1 (Homo sapiens (Human), UniProt Q13043); conditions: H929 live cell
Protocol: as §1

IRE1 = IRE1 (Homo sapiens (Human), UniProt O75460); conditions: H929 live cell
Protocol: as §1

ILK = ILK (Homo sapiens (Human), UniProt Q13418); conditions: H929 live cell
Protocol: as §1

RSK2 domain1 = RSK2 domain1 (Homo sapiens (Human), UniProt P51812); conditions: H929 live cell
Protocol: as §1

NEK9 = NEK9 (Homo sapiens (Human), UniProt Q8TD19); conditions: H929 live cell
Protocol: as §1

Wnk1, Wnk2, Wnk3 = conditions: H929 live cell
Protocol: as §1

LKB1 = LKB1 (Homo sapiens (Human), UniProt Q15831); conditions: H929 live cell
Protocol: as §1

IKKb = IKKb (Homo sapiens (Human), UniProt O14920); conditions: H929 live cell
Protocol: as §1

JAK1 domain2 = JAK1 domain2 (Homo sapiens (Human), UniProt P23458); conditions: H929 live cell
Protocol: as §1

NuaK1 = NuaK1 (Homo sapiens (Human), UniProt O60285); conditions: H929 live cell
Protocol: as §1

GCK = GCK (Homo sapiens (Human), UniProt Q12851); conditions: H929 live cell, read-out: inhibition (10 μM)
Protocol: as §1

MSK2 domain1 = MSK2 domain1 (Homo sapiens (Human), UniProt O75676); conditions: H929 live cell
Protocol: as §1

PKCz = PKCz (Homo sapiens (Human), UniProt Q05513); conditions: H929 live cell
Protocol: as §1

CDK7 = CDK7 (Homo sapiens (Human), UniProt P50613); conditions: H929 live cell
Protocol: as §1

PRP4 = PRP4 (Homo sapiens (Human), UniProt Q13523); conditions: H929 live cell
Protocol: as §1

AurB = AurB (Homo sapiens (Human), UniProt Q96GD4); conditions: H929 live cell
Protocol: as §1

EphB2 = EphB2 (Homo sapiens (Human), UniProt P29323); conditions: H929 live cell
Protocol: as §1

MST3 = MST3 (Homo sapiens (Human), UniProt Q9Y6E0); conditions: H929 live cell
Protocol: as §1

ABL, ARG = conditions: H929 live cell
Protocol: as §1

PIK3C3 = PIK3C3 (Homo sapiens (Human), UniProt Q8NEB9); conditions: H929 live cell, read-out: inhibition (10 μM)
Protocol: as §1

[1] = tested on: RSK1 domain1, RSK2 domain1, RSK3 domain1; conditions: H929 live cell
Protocol: as §1

SLK = SLK (Homo sapiens (Human), UniProt Q9H2G2); conditions: H929 live cell
Protocol: as §1

CaMK1d = CaMK1d (Homo sapiens (Human), UniProt Q8IU85); conditions: H929 live cell
Protocol: as §1

MAST3 = MAST3 (Homo sapiens (Human), UniProt O60307); conditions: H929 live cell
Protocol: as §1

TAO2 = TAO2 (Homo sapiens (Human), UniProt Q9UL54); conditions: H929 live cell
Protocol: as §1

MST1, MST2 = conditions: H929 live cell
Protocol: as §1

MLKL = MLKL (Homo sapiens (Human), UniProt Q8NB16); conditions: H929 live cell
Protocol: as §1

Chain of NuaK1 (O60285 whole entry): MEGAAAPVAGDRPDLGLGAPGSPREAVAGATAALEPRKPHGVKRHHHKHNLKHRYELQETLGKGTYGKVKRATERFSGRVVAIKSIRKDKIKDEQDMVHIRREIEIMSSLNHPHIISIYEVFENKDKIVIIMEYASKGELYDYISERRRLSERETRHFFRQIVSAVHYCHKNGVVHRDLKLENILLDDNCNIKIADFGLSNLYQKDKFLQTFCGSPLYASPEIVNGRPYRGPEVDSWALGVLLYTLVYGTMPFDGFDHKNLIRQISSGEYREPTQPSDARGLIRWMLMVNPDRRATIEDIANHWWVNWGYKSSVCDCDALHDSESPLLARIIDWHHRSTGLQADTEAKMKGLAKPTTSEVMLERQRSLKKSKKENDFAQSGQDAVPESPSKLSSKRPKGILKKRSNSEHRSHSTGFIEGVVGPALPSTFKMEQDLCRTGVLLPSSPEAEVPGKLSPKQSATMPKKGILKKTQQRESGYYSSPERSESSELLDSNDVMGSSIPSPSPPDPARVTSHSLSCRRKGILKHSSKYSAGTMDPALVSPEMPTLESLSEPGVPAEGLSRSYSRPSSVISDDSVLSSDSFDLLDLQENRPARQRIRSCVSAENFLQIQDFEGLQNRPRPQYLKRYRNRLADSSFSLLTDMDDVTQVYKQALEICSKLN
Chain of p70S6K (P23443 whole entry): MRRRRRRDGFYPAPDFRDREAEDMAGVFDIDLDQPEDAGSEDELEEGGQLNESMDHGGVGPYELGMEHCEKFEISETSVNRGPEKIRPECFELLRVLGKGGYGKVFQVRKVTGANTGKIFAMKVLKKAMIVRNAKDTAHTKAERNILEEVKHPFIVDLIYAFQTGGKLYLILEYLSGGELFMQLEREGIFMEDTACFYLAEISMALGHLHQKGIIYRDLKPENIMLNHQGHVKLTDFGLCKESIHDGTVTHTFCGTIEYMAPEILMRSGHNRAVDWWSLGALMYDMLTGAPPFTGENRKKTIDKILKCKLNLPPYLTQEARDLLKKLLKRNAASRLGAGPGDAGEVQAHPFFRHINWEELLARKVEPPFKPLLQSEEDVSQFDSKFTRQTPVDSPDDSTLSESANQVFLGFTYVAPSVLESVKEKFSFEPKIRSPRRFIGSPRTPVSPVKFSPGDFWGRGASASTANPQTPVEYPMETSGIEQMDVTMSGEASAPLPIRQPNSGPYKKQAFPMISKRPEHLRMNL
Chain of EphB2 (P29323 19-1055): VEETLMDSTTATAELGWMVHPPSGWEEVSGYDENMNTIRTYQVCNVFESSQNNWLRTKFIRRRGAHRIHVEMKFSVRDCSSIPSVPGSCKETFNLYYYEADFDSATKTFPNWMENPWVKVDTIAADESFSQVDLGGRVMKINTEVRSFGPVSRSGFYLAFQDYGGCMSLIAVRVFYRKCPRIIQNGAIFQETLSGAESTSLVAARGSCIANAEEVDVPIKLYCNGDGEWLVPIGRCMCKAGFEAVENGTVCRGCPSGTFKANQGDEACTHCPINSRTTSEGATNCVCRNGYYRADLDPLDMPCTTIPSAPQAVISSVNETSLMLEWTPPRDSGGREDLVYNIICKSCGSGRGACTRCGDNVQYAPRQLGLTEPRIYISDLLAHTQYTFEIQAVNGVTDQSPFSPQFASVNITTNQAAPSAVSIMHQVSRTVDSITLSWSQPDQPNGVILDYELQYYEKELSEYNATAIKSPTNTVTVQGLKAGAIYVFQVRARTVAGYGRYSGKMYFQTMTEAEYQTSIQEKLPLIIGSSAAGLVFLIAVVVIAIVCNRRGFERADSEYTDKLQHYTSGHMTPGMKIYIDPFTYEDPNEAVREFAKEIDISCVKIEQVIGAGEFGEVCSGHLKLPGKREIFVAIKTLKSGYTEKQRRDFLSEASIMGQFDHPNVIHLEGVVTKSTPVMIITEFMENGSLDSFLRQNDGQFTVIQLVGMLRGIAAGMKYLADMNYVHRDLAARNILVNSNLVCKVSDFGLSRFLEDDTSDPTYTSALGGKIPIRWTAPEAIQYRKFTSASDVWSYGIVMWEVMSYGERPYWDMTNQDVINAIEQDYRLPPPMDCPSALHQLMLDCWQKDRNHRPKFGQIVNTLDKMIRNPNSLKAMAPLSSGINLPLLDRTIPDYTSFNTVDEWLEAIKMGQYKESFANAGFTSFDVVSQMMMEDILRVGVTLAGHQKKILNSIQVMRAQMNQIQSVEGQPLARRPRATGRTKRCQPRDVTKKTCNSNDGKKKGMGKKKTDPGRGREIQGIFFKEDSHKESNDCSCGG
Chain of RSK2 domain1 (P51812 whole entry, the tested form may be a part): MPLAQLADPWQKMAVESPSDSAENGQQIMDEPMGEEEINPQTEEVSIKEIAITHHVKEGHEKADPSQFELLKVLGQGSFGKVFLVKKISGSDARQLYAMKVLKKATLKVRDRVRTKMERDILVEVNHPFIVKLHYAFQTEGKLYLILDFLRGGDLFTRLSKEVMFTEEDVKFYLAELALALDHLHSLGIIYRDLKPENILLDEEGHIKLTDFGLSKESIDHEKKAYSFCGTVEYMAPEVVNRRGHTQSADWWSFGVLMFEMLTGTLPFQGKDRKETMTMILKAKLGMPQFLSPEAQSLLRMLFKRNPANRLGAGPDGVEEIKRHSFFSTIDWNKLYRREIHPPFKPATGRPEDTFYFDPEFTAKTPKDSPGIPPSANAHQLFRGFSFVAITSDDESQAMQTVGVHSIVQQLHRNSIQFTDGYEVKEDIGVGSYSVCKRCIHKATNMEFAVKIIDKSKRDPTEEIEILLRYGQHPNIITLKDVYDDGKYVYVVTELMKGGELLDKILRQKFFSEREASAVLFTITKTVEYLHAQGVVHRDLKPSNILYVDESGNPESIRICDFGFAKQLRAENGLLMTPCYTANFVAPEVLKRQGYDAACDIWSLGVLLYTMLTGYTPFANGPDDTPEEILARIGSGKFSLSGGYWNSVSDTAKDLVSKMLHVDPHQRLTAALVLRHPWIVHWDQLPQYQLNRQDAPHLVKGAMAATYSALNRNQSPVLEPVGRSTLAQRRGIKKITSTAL
Chain of PRP4 (Q13523 whole entry): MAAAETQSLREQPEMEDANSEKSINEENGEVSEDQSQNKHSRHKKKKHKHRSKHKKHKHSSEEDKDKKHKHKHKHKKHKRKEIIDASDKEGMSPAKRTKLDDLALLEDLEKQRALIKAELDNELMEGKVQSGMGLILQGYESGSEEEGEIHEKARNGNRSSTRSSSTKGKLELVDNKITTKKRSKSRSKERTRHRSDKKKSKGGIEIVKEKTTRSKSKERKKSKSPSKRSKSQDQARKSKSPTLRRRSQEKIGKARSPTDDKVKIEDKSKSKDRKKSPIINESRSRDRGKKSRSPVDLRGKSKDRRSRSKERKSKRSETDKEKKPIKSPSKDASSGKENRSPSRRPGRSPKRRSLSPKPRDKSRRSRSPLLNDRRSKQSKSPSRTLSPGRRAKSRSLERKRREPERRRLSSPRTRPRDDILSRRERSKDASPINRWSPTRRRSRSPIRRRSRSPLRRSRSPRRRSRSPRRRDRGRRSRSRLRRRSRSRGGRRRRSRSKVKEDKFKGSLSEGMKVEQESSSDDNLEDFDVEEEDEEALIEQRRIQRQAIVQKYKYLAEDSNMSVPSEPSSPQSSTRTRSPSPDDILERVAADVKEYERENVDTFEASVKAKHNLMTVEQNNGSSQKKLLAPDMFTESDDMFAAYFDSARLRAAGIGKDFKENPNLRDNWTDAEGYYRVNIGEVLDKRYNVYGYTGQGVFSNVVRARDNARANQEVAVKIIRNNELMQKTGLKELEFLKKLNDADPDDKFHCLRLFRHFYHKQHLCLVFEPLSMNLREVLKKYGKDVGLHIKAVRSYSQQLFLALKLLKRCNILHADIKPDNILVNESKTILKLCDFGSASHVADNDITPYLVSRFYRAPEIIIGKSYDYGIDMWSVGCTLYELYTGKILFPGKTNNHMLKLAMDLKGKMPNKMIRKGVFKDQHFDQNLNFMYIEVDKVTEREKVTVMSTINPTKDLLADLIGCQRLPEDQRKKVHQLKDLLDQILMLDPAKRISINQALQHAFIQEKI
Chain of IRE1 (O75460 19-977): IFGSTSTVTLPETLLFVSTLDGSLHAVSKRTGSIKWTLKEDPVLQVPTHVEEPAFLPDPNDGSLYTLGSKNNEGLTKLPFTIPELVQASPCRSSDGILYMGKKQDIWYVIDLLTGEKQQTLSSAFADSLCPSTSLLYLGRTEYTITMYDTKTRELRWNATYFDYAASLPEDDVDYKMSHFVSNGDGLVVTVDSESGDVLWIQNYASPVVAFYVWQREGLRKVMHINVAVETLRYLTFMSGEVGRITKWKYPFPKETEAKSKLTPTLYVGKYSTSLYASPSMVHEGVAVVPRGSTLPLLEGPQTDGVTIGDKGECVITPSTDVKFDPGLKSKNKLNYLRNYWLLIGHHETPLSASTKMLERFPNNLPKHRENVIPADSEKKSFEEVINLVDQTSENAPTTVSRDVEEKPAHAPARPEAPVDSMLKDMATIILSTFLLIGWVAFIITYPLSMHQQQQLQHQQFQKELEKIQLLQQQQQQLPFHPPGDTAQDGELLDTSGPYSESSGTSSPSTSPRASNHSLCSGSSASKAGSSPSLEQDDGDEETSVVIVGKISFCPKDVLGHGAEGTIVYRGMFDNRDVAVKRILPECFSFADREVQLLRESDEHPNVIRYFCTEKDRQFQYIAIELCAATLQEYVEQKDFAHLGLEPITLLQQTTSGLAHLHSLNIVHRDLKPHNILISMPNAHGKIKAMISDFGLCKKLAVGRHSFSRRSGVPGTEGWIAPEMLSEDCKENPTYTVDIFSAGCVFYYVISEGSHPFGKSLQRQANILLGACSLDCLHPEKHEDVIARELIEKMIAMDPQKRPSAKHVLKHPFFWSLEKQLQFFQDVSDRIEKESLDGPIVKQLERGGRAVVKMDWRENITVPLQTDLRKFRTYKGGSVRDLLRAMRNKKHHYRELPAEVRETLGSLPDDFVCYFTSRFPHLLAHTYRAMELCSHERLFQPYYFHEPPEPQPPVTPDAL

## Nc1ncc(-c2cccc([N+](=O)[O-])c2F)cc1-c1ccc2c(c1)CCNC2=O [Compound I-9, 6-(2-amino-5-(2-fluoro-3-nitrophenyl)pyridin-3-yl)-3,4-dihydroisoquinolin-1(2H)-one]
MAP2K7; read-out: % inhibition (range)
  inhibition at 10 µM: 0%
MAP2K7; read-out: inhibition (10 μM)
  inhibition at 10 µM: 14.6%
p70S6Kb; read-out: % inhibition (range)
  inhibition at 10 µM: 0%
p70S6Kb; read-out: inhibition (10 μM)
  inhibition at 10 µM: -84.5%
p70S6K; read-out: % inhibition (range)
  inhibition at 10 µM: 0%
p70S6K; read-out: inhibition (10 μM)
  inhibition at 10 µM: -71.5%
PRPK; read-out: % inhibition (range)
  inhibition at 10 µM: 0%
PRPK; read-out: inhibition (10 μM)
  inhibition at 10 µM: -5%
RSK1 domain2; read-out: % inhibition (range)
  inhibition at 10 µM: 0%
RSK1 domain2; read-out: inhibition (10 μM)
  inhibition at 10 µM: 1%
TAO1, TAO3; 10 μM
  % inhibition (range): 50-75%
TAO1, TAO3
  inhibition (10 μM): 67.5%
MST1; read-out: % inhibition (range)
  inhibition at 10 µM: > 90%
MST1; read-out: inhibition (10 μM)
  inhibition at 10 µM: 95.4%
IRE1; read-out: % inhibition (range)
  inhibition at 10 µM: 0%
IRE1; read-out: inhibition (10 μM)
  inhibition at 10 µM: -50.1%
ILK; read-out: % inhibition (range)
  inhibition at 10 µM: 0%
ILK; read-out: inhibition (10 μM)
  inhibition at 10 µM: -19%
RSK2 domain1; read-out: % inhibition (range)
  inhibition at 10 µM: 50 to 75%
RSK2 domain1; read-out: inhibition (10 μM)
  inhibition at 10 µM: 69.9%
NEK9; read-out: % inhibition (range)
  inhibition at 10 µM: 0%
NEK9; read-out: inhibition (10 μM)
  inhibition at 10 µM: -38.3%
Wnk1, Wnk2, Wnk3; 10 μM
  % inhibition (range): >100%
Wnk1, Wnk2, Wnk3
  inhibition (10 μM): −105.5%
LKB1; read-out: % inhibition (range)
  inhibition at 10 µM: 0%
LKB1; read-out: inhibition (10 μM)
  inhibition at 10 µM: 4.5%
IKKb; read-out: % inhibition (range)
  inhibition at 10 µM: 0%
IKKb; read-out: inhibition (10 μM)
  inhibition at 10 µM: -15%
JAK1 domain2; read-out: % inhibition (range)
  inhibition at 10 µM: 0%
JAK1 domain2; read-out: inhibition (10 μM)
  inhibition at 10 µM: -4.9%
NuaK1
  inhibition (10 μM): >90%
NuaK1; read-out: % inhibition (range)
  inhibition at 10 µM: > 90%
NuaK1; read-out: inhibition (10 μM)
  inhibition at 10 µM: 91%
GCK
  inhibition at 10 µM: 91.5%
MSK2 domain1; read-out: % inhibition (range)
  inhibition at 10 µM: 0%
MSK2 domain1; read-out: inhibition (10 μM)
  inhibition at 10 µM: -36.5%
PKCz; read-out: % inhibition (range)
  inhibition at 10 µM: 0%
PKCz; read-out: inhibition (10 μM)
  inhibition at 10 µM: 27%
CDK7; read-out: % inhibition (range)
  inhibition at 10 µM: 75 to 90%
CDK7; read-out: inhibition (10 μM)
  inhibition at 10 µM: 78.2%
PRP4; read-out: % inhibition (range)
  inhibition at 10 µM: 50 to 75%
PRP4; read-out: inhibition (10 μM)
  inhibition at 10 µM: 70.2%
AurB; read-out: % inhibition (range)
  inhibition at 10 µM: 50 to 75%
AurB; read-out: inhibition (10 μM)
  inhibition at 10 µM: 53.4%
EphB2; read-out: % inhibition (range)
  inhibition at 10 µM: 0%
EphB2; read-out: inhibition (10 μM)
  inhibition at 10 µM: -25%
MST3; read-out: % inhibition (range)
  inhibition at 10 µM: 35 to 50%
MST3; read-out: inhibition (10 μM)
  inhibition at 10 µM: 40.4%
ABL, ARG; 10 μM
  % inhibition (range): 75-90%
ABL, ARG
  inhibition (10 μM): 75.7%
PIK3C3
  inhibition at 10 µM: 51.2%
[1]; 10 μM
  % inhibition (range): 50-75%
[1]
  inhibition (10 μM): 58.7%
SLK; read-out: % inhibition (range)
  inhibition at 10 µM: > 90%
SLK; read-out: inhibition (10 μM)
  inhibition at 10 µM: 95.3%
CaMK1d; read-out: % inhibition (range)
  inhibition at 10 µM: 0%
CaMK1d; read-out: inhibition (10 μM)
  inhibition at 10 µM: -2.8%
MAST3; read-out: % inhibition (range)
  inhibition at 10 µM: 0%
MAST3; read-out: inhibition (10 μM)
  inhibition at 10 µM: 31.2%
TAO2; read-out: % inhibition (range)
  inhibition at 10 µM: 35 to 50%
TAO2; read-out: inhibition (10 μM)
  inhibition at 10 µM: 35.3%
MST1, MST2; 10 μM
  % inhibition (range): >90%
MST1, MST2
  inhibition (10 μM): 99.0%
MLKL; read-out: % inhibition (range)
  inhibition at 10 µM: 50 to 75%
MLKL; read-out: inhibition (10 μM)
  inhibition at 10 µM: 66.9%
